Results reported in US20240010681A1, “PEPTIDES AND METHODS OF USE” (REALTA LIFE SCIENCES, INC., priority 2020, published 2024).

Legend:
[1] = test system: inflammatory cytokines and chemokines; assay: Plasma cytokine and chemokine levels by xMAP bead-based immunoassay in two-hit ALI rat model; type: in vivo
two-hit ALI model = assay: Lung histology (H&E) and ImageJ lung injury score in two-hit ALI rat model; type: in vivo
Procedure: The inventors' previously developed two-hit ALI model is initiated by infusion of LPS (first hit) into Wistar rats followed 30 minutes later with transfusion of 30% incompatible erythrocytes (second hit) and sacrifice of the animals 4 hours later. […] Lungs were isolated from animals four hours after the second hit and tissues evaluated by H&E staining.
To determine the level of lung tissue protection by RLS-0071 in this model, grading of H&E sections for cell wall thickening for the different treatment groups was performed. Images of randomized microscopy fields were converted to black and white and quantified by ImageJ (NIH) analysis. The ratio of black to white pixels was then determined as a measure of lung damage: as lung damage increased, the alveolar walls thickened, shrinking the alveolar space (white space), resulting in a decrease in white pixels and increase in black pixels.

C5a = C5a ELISA in plasma, two-hit ALI rat model; type: in vivo
Procedure: C5a was then measured in each sample by ELISA and absorbance was read at 450 nm. Two replicates for each animal were measured for every time point. Data are means and standard error of the mean. Statistical analysis was performed using were conducted using bootstrap approach or Welch's ANOVA. * denotes p=0.010, ** denotes p=0.004, *** denotes p=0.002, and **** denotes p≤0.001 compared to 2-hit animals.
Animals receiving the 2-hit insult had substantially more C5a production at the 1-hour time point as expected (FIG. 20).
RLS-0071 was tested in a two-hit rat model of ALI. The first insult is neutrophil stimulation with lipopolysaccharide (LPS) followed 30 minutes later by a second insult of classical complement activation with incompatible erythrocytes. This model can produce dramatic neutrophil infiltration into alveolar walls, thickening the walls and reducing alveolar airspace by 85%. […] Given the short 5-minute half-life of C5a, the measurement of elevated C5a at 60 minutes is consistent with tissue generated C5a.

free DNA = assay: Free DNA in plasma by PicoGreen assay, two-hit ALI rat model; type: in vivo
Procedure: . Plasma samples were incubated with PicoGreen. […] All free DNA measurements for each animal were done in triplicate. Data are means and standard error of the mean. Statistical analysis was performed using bootstrap approach or Welch's ANOVA. * denotes p=0.026, ** denotes p=0.039 and *** denotes p=0.005 compared to 2-hit animals.
Neutrophil extracellular traps (NETs) released from activated neutrophils have been previously shown to play a pathogenic role in a variety of autoimmune, metabolic, and inflammatory diseases. […] . […] .

[2] = test system: classical complement pathway mediated hemolysis; assay: Free hemoglobin in plasma (intravascular hemolysis), two-hit ALI rat model; type: in vivo; conditions: 10 mg/kg IV; compared with saline treatment
Procedure: Complement inhibition in the bloodstream of rats in the 2-hit ALI model was measured by two different methods. The first method measured free hemoglobin in the plasma of the rats over time, by measuring intravascular hemolysis of the transfused incompatible erythrocytes.

mCH50 = mCH50 ex vivo on plasma of two-hit ALI rats; type: in vivo, rat; conditions: 10 mg/kg IV; compared with saline treated control
human neutrophils = assay: Immunofluorescence binding to purified human neutrophils; type: cell-based; conditions: 1 mM, 30 minutes
Procedure: To evaluate binding of PA-dPEG24 to neutrophils, purified human neutrophils were cytospun onto glass slides. PA-dPEG24 (1 mM) was then added to one set of slides for 30 minutes and the slides were subsequently washed with PBS. The cells were then incubated with an antibody to PA-dPEG24 (1:1,000 dilution of Chicken Anti-PIC1) followed by a labeled secondary antibody (1:2,000 dilution of Anti-Chicken, Alexa Fluor 488) and counterstained with DAPI. Cells were then visualized by microscopy. In each case, DAPI staining confirmed that the cells were present on the slides and intact.

LFA-1 = LFA-1 (Homo sapiens, UniProt P05107+P20701); assay: ELISA-type plate binding assay, LFA-1
Procedure: (§1) To address this hypothesis, an ELISA-type binding assay was developed in which neutrophil ligands (LFA-1 and MAC-1/CR3) and […] cell ligands (ICAM-1/CD54 and ICAM-2/CD102) were bound to microtiter plates. Plates were then incubated with increasing amounts of PA-dPEG24 in 1% gelatin/PBS buffer probed with antibody to the peptide and developed.
To ascertain if PA-dPEG24 could bind ICAM-1 and LFA-1 in plasma, these receptors were coated onto microtiter plates and then incubated with human plasma containing increasing amounts of PA-dPEG24, probed with antibody to the peptide and then developed.

ICAM-2/CD102 = ICAM-2/CD102 (Homo sapiens, UniProt P13598); assay: ELISA-type plate binding assay, ICAM-2; conditions: 1% gelatin/PBS buffer
Procedure: as §1

ICAM-5 = ICAM-5 (Homo sapiens, UniProt Q9UMF0); assay: ELISA-type plate binding assay, ICAM-5; conditions: buffer
[3] = test system: human umbilical vascular endothelial cell (HUVEC); assay: HUVEC basement membrane matrix (Geltrex) culture, LPS-stimulated angiogenesis; type: cell-based; conditions: no CellTrace dye, compared with 3-dimensional system
Procedure: FIG. 36. […] Cells were applied to a layer of basement membrane matrix containing LPS to stimulate angiogenesis and cultured for 18 hours at 37° C. Angiogenesis (nascent tube formation and sprouting) was observed by light microscopy.

[4] = test system: VEGF binding to VEGFR-2 (KDR); assay: VEGF Bioassay (Promega), bioluminescent reporter cells; conditions: increasing peptide concentrations, then human VEGF stimulation
[5] = test system: OVA/LPS rat model of neutrophilic asthma; assay: OVA/LPS rat model of neutrophilic asthma, leucocyte quantification in BALF; conditions: Day 24

Chain of LFA-1 (P20701 26-1170): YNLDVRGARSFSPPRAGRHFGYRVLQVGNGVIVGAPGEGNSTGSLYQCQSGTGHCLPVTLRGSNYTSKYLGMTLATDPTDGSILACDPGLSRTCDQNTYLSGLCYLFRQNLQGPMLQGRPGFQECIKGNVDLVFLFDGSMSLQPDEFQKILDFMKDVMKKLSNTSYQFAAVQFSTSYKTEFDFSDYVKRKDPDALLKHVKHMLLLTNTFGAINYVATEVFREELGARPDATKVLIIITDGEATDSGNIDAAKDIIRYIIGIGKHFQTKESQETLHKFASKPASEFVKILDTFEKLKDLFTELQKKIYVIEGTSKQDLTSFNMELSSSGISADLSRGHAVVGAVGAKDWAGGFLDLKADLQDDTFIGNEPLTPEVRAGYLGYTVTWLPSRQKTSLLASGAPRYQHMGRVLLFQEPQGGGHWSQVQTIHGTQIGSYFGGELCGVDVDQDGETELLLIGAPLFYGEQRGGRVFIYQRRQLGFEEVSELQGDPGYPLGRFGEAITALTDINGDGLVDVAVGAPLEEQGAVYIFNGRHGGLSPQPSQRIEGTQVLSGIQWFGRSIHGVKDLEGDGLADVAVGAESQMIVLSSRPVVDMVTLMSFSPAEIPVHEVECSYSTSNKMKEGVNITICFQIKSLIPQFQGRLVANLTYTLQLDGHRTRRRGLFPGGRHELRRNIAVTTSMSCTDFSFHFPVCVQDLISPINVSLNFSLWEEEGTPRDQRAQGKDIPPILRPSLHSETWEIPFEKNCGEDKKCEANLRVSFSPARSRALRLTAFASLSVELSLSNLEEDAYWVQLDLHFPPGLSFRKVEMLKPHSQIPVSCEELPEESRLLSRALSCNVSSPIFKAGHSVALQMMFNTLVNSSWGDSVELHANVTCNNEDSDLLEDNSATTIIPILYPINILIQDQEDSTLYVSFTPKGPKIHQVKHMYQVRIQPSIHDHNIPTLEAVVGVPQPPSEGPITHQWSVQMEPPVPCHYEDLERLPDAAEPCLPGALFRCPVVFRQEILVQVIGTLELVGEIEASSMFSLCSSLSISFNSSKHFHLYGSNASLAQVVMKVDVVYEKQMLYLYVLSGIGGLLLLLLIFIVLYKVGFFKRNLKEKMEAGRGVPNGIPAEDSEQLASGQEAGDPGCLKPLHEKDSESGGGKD
Chain of LFA-1 (P05107 23-769): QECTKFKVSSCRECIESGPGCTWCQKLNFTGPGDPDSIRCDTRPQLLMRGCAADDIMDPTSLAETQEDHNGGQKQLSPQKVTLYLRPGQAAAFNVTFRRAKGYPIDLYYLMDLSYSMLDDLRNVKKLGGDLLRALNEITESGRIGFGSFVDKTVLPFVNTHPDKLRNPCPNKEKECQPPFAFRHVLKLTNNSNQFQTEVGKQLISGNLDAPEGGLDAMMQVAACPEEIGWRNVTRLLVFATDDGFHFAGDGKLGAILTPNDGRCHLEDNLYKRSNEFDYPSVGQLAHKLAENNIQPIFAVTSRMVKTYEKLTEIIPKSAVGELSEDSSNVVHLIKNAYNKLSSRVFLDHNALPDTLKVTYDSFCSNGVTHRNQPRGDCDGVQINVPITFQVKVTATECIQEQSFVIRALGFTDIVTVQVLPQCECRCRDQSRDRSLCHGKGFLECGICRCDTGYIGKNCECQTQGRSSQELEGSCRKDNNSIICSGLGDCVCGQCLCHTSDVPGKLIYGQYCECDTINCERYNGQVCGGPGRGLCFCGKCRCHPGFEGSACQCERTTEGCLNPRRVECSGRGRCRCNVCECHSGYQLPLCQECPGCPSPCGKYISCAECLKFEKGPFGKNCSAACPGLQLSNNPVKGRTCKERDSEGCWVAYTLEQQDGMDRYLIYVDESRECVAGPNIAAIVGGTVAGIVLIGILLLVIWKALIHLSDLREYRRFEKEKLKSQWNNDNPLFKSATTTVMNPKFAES
Chain of ICAM-2/CD102 (P13598 25-275): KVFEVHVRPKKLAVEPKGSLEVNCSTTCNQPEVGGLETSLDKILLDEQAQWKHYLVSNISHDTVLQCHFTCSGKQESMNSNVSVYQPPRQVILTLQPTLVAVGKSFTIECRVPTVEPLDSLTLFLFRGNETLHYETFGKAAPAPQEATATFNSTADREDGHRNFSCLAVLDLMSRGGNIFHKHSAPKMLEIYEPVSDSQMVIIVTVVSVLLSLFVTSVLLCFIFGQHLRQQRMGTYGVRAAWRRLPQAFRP
Chain of ICAM-5 (Q9UMF0 32-924): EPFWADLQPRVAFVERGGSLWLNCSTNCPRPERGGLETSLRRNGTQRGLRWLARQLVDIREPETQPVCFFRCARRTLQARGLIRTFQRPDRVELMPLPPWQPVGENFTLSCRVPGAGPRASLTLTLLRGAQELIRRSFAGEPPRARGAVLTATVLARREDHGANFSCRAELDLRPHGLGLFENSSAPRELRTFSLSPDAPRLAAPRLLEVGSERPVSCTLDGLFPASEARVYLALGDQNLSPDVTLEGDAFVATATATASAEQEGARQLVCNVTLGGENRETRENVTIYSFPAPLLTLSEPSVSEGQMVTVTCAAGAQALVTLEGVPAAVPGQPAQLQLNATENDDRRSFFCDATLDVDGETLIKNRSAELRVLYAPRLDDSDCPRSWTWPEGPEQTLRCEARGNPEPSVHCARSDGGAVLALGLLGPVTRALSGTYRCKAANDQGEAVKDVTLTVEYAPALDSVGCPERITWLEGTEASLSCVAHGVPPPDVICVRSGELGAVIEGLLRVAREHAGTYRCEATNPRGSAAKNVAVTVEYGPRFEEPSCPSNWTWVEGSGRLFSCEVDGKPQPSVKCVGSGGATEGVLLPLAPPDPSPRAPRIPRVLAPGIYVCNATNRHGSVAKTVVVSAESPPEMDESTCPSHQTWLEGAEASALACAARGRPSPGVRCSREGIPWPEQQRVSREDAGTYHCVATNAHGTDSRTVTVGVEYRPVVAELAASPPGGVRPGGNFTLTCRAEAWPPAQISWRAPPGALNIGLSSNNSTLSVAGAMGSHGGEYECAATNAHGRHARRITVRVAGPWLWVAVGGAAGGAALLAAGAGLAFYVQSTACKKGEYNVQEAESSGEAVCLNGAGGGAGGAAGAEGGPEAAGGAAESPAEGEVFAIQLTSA

CC[C@H](C)[C@H](N)C(=O)N[C@@H](C)C(=O)N[C@@H](CC(C)C)C(=O)N[C@H](C(=O)N[C@@H](CC(C)C)C(=O)N[C@@H](CCC(=O)O)C(=O)N1CCC[C@H]1C(=O)N[C@H](C(=O)N[C@@H](CS)C(=O)N[C@@H](CS)C(=O)N[C@@H](CCC(N)=O)C(=O)N[C@@H](CCC(=O)O)C(=O)N[C@@H](CCCNC(=N)N)C(=O)N[C@@H](C)C(=O)N[C@@H](C)C(=O)NCCOCCOCCOCCOCCOCCOCCOCCOCCOCCOCCOCCOCCOCCOCCOCCOCCOCCOCCOCCOCCOCCOCCOCCOCCC(=O)O)[C@@H](C)CC)[C@@H](C)CC [RLS-0071]
levels of anti-inflammatory Th2 cytokine IL-4 ([1]; 10 or 160 mg/kg before or 40 or 160 mg/kg after transfusion, FIG. 3): did not significantly decrease | other cytokine and growth factor levels (EGF, LIX, VEGF, Leptin, GRO, Fractalkine, GM-CSF, Eotaxin, G-CSF) ([1]; 10 or 160 mg/kg before or 40 or 160 mg/kg after transfusion, FIG. 4): either significant reduction or a trend toward reduced levels | cytokine levels IL-5, IL-18, IL-1alpha, IL-13, IL-17, IL-12, IP-10 ([1]; 10 or 160 mg/kg before or 40 or 160 mg/kg after transfusion, terminal blood plasma, FIG. 2): either significant pro-inflammatory cytokine reduction or a trend toward reduced levels | VEGF level in 2-hit rat acute lung injury model ([1]; FIG. 4): downregulate VEGF | pro-inflammatory cytokines (IL-1a, IL-1b, IL-6, IFN-g, IL-17, IL-18, TNFa, RANTES) and chemokines (MCP-1, MIP-1a, MIP-2) ([1]; prophylactic 10 or 160 mg/kg, rescue 40 or 160 mg/kg, terminal 4-hour time point, vs untreated 2-hit animals, some significant): reduced levels of cytokines and chemokines | cytokine levels IFNgamma, IL-6, IL-2, IL-10, TNFalpha, MCP-1, RANTES, MIP1alpha, IL-1beta, MIP-2 ([1]; single dose 10 or 160 mg/kg before or 40 or 160 mg/kg after transfusion, terminal blood plasma, FIG. 1): either significant pro-inflammatory cytokine reduction or a trend toward reduced levels | lung injury score (ratio of black to white pixels) (two-hit ALI model; 10 mg/kg prophylactic dose, p=0.002 vs untreated 2-hit animals): significant reduction in lung damage | lung injury score (ratio of black to white pixels) (two-hit ALI model; 40 mg/kg prophylactic dose, p<0.001 vs untreated 2-hit animals): this effect was enhanced | lung damage by H&E histology (two-hit ALI model; prophylactic 10, 40 or 160 mg/kg 2 minutes before incompatible erythrocyte transfusion, lungs 4 h after second hit): marked reduction in lung damage | lung tissue architecture by H&E histology (two-hit ALI model; rescue 40 mg/kg at 0.5, 60, 90, 120 and 180 min after second hit): lung tissue architecture resembling that of sham animals | lung injury score (ratio of black to white pixels) (two-hit ALI model; rescue 40 mg/kg at 0.5, 60, 90, 120 and 180 minutes after erythrocyte transfusion, all p<0.001): significant reduction in lung damage | decrease in C5a generation in the tissues (C5a; 10 mg/kg IV): 50% | C5a level in blood (C5a; all rescue doses 40 mg/kg (0.5-180 minutes), 1-hour time point, vs 2-hit only animals): significantly reduced levels of C5a | C5a level in blood (C5a; prophylactic 10, 40 and 160 mg/kg, 5-minute time point, p<0.001 each dose): significant reduction of C5a | C5a level in blood (C5a; prophylactic doses, 1-hour time point, 10 mg/kg reaching significance (p=0.002)): reduction of C5a at the 1-hour time points | C5a level in blood (C5a; rescue 40 mg/kg at 0.5, 60, 90 and 120 minutes (not 180 minutes), 5-minute time point): significantly decreased levels of C5a | free DNA level in plasma (free DNA; prophylactic 10, 40 and 160 mg/kg, 4 hours after transfusion, 160 mg/kg significant (p=0.026)): reduced levels of free DNA | free DNA level in plasma (free DNA; rescue 40 mg/kg up to three hours after 2-hit injury, 120 and 180 minutes significant (p=0.039, p=0.005)): reduced levels of free DNA | inhibition of intravascular hemolysis (free hemoglobin in plasma) [2]: no inhibition of classical complement pathway mediated hemolysis | inhibition of mCH50 (mCH50): did not inhibit mCH50 | binding to neutrophil cell surface (immunofluorescence) (human neutrophils): fluorescence signal demonstrating direct binding of the peptide to the cell surface | binding to LFA-1 (LFA-1; 1% gelatin/PBS buffer): bound dose-dependently | binding to LFA-1 (LFA-1; in human plasma): bound dose-dependently | binding to ICAM-2 (ICAM-2/CD102): but not ICAM-2 | binding to ICAM-5 (ICAM-5): superior binding to ICAM-5 | angiogenesis (sprouting and tube formation) [3]: same results | time RLS-0071 could be detected in vitreous post-IVT injection (IVT 160 mg/ml in 5 microliters): up to 10 days | half-life, IVT versus IV (IVT 160 mg/ml vs IV 200 mg/ml): much longer half-life in the eye than peptide delivered intravenously | inhibition of VEGF binding to VEGFR-2 and intracellular signaling (luminescence) [4]: dose-dependent inhibition of intracellular signaling | neutrophil accumulation in the BALF ([5]; prophylactic 160 mg/kg IV Days 21, 22, 23, P<0.03): significant reduction in neutrophil accumulation | neutrophils in the BALF ([5]; rescue 160 mg/kg IV Days 22 and 23, P<0.1844): reduction in neutrophils but did not reach statistical significance
